Legend:
Hepatitis C virus [1] = assay: Antiviral activity against HCV subtype 1b infected in human hepatoma cells; assay type: functional, organism-based, Hepacivirus hominis; conditions: genotype 1b
Hepatitis C virus [2] = assay: Antiviral activity against HCV subtype 1b expressing NS3/4A R115K mutant protease infected in ET cells after 72 hrs; assay type: functional, organism-based, Hepacivirus hominis; conditions: genotype 1b
Hepatitis C virus [3] = assay: Antiviral activity against HCV subtype 1b expressing wild type NS3/4A protease infected in ET cells after 72 hrs; assay type: functional, organism-based, Hepacivirus hominis; conditions: genotype 1b
Hepatitis C virus [4] = assay: Antiviral activity against HCV subtype 1b expressing NS3/4A D168A mutant protease infected in ET cells after 72 hrs; assay type: functional, organism-based, Hepacivirus hominis; conditions: genotype 1b
Hepatitis C virus [5] = assay: Antiviral activity against HCV subtype 1b expressing NS3/4A D168V mutant protease infected in ET cells after 72 hrs; assay type: functional, organism-based, Hepacivirus hominis; conditions: genotype 1b
Hepatitis C virus [6] = assay: Antiviral activity against HCV subtype 1b expressing NS3/4A A156T mutant protease infected in ET cells after 72 hrs; assay type: functional, organism-based, Hepacivirus hominis; conditions: genotype 1b
Hepatitis C virus [7] = assay: Antiviral activity against HCV subtype 1b expressing NS3/4A A156V mutant protease infected in ET cells after 72 hrs; assay type: functional, organism-based, Hepacivirus hominis; conditions: genotype 1b
[8] = Inhibition of HCV subtype 1a NS3/4A protease (Ac-DE-Dap(QXL520)-EE-Abu-psi-[COO]-ASC(5-FAMsp)-NH2 as substrate by FRET analysis; design: species or system Hepatitis C virus subtype 1a
Hepatitis C virus [9] = assay: Antiviral activity against HCV subtype 1b expressing NS3/4A A156S mutant protease infected in ET cells after 72 hrs; assay type: functional, organism-based, Hepacivirus hominis; conditions: genotype 1b
Hepatitis C virus [10] = assay: Antiviral activity against HCV subtype 1a infected in human hepatoma cells; assay type: functional, organism-based, Hepacivirus hominis
[11] = Clearance in Sprague-Dawley rat at 1.23 mg/kg, iv; assay type: ADME, organism-based; design: dose 1.23 mg/kg, route intravenous; conditions: in vivo
[12] = Drug absorption in Sprague-Dawley rat portal vein at 6.15 mg/kg, po; assay type: ADME, organism-based; design: dose 6.15 mg/kg, route oral; conditions: read-out: Drug absorption
[13] = AUC in Sprague-Dawley rat at 1.23 mg/kg, iv; assay type: ADME, organism-based; design: dose 1.23 mg/kg, route intravenous; conditions: plasma
[14] = Terminal half life in Sprague-Dawley rat at 6.15 mg/kg, po and 1.23 mg/kg, iv; assay type: ADME, organism-based; conditions: in vivo, read-out: beta t1/2 (converted)
[15] = AUC (0 to infinity) in Sprague-Dawley rat at 6.15 mg/kg, po; assay type: ADME, organism-based; design: time infinity, dose 6.15 mg/kg, route oral; conditions: plasma
[16] = Oral bioavailability in Sprague-Dawley rat at 6.15 mg/kg; assay type: ADME, organism-based; conditions: in vivo
[17] = Drug absorption in Sprague-Dawley rat portal vein at 5 mg/kg, po; assay type: ADME, organism-based; design: dose 5 mg/kg, route oral; conditions: read-out: Drug absorption
[18] = Clearance in Sprague-Dawley rat at 1 mg/kg, iv; assay type: ADME, organism-based; design: dose 1 mg/kg, route intravenous; conditions: in vivo
[19] = Terminal half life in Sprague-Dawley rat at 5 mg/kg, po and 1 mg/kg, iv; assay type: ADME, organism-based; conditions: in vivo, read-out: beta t1/2 (converted)
[20] = AUC (0 to infinity) in Sprague-Dawley rat at 5 mg/kg, po; assay type: ADME, organism-based; design: time infinity, dose 5 mg/kg, route oral; conditions: plasma
[21] = AUC in Sprague-Dawley rat at 1 mg/kg, iv; assay type: ADME, organism-based; design: dose 1 mg/kg, route intravenous; conditions: plasma
[22] = Oral bioavailability in Sprague-Dawley rat at 5 mg/kg; assay type: ADME, organism-based; conditions: in vivo

SMILES | EC50 (Hepatitis C virus [1]) [nM] | EC50 (Hepatitis C virus [2]) [nM] | EC50 (Hepatitis C virus [3]) [nM] | EC50 (Hepatitis C virus [4]) [nM] | EC50 (Hepatitis C virus [5]) [nM] | EC50 (Hepatitis C virus [6]) [nM] | EC50 (Hepatitis C virus [7]) [nM] | IC50 [8] [nM] | EC50 (Hepatitis C virus [9]) [nM] | EC50 (Hepatitis C virus [10]) [nM] | other results
COc1ccc2c(O[C@@H]3C[C@H]4C(=O)N[C@]5(C(=O)NS(=O)(=O)C6CC6)C[C@H]5/C=C\CCCCC[C@H](N/C(=N\C#N)NC(C)(C)C)C(=O)N4C3)cc(-c3nc(C4CC4)cs3)nc2c1C | 0.7 | 123 | 0.3 | 331 | 832 | 27 | 78 | 2.5 | 0.5 | 2.5 | 
COc1ccc2c(O[C@@H]3C[C@H]4C(=O)N[C@]5(C(=O)NS(=O)(=O)C6CC6)C[C@H]5/C=C\CCCCC[C@H](NC(=O)C5(OC)CCCC5)C(=O)N4C3)cc(-c3nc(C4CC4)cs3)nc2c1C | 0.3 | 25 | 0.05 | 50 | 234 | 13 | 49 | 4 | 0.09 | 0.3 | 
COc1ccc2c(O[C@@H]3C[C@H]4C(=O)N[C@]5(C(=O)NS(=O)(=O)C6CC6)C[C@H]5/C=C\CCCCC[C@H](N5CCOC5=O)C(=O)N4C3)cc(-c3nc(C4CC4)cs3)nc2c1C | 14 | 977 | 27 | 1820 | 3020 | 107 | 151 | 2.5 | 3.5 | 17 | 
COc1ccc2c(O[C@@H]3C[C@H]4C(=O)N[C@]5(C(=O)NS(=O)(=O)C6CC6)C[C@H]5/C=C\CCCCC[C@H](N5CCCC5=O)C(=O)N4C3)cc(-c3nc(C4CC4)cs3)nc2c1C | 24 | 794 | 8.7 | 1350 | 3980 | 219 | 646 | 20 | 6.2 | 42 | 
COc1ccc2c(O[C@@H]3C[C@H]4C(=O)N[C@]5(C(=O)NS(=O)(=O)C6CC6)C[C@H]5/C=C\CCCCC[C@H](NC(=O)C(C)=O)C(=O)N4C3)cc(-c3nc(C4CC4)cs3)nc2c1C | 0.6 |  |  |  |  |  |  | 0.8 |  | 0.5 | 
CCOC(=O)C(=O)N[C@H]1CCCCC/C=C\[C@@H]2C[C@@]2(C(=O)NS(=O)(=O)C2CC2)NC(=O)[C@@H]2C[C@@H](Oc3cc(-c4nc(C5CC5)cs4)nc4c(C)c(OC)ccc34)CN2C1=O | 1.2 |  |  |  |  |  |  | 1 |  | 2.6 | 
COc1ccc2c(O[C@@H]3C[C@H]4C(=O)N[C@]5(C(=O)NS(=O)(=O)C6CC6)C[C@H]5/C=C\CCCCC[C@H](NC(=O)C(=O)NC(C)(C)C)C(=O)N4C3)cc(-c3nc(C4CC4)cs3)nc2c1C | 0.7 |  |  |  |  |  |  | 4 |  | 0.6 | 
COc1ccc2c(O[C@@H]3C[C@H]4C(=O)N[C@]5(C(=O)NS(=O)(=O)C6CC6)C[C@H]5/C=C\CCCCC[C@H](NC(=O)C(=O)NC5CCCCC5)C(=O)N4C3)cc(-c3nc(C4CC4)cs3)nc2c1C | 0.5 |  |  |  |  |  |  | 6.3 |  | 0.5 | 
COc1ccc2c(O[C@@H]3C[C@H]4C(=O)N[C@]5(C(=O)NS(=O)(=O)C6CC6)C[C@H]5/C=C\CCCCC[C@H](NC(=O)C(=O)N5CCCC5)C(=O)N4C3)cc(-c3nc(C4CC4)cs3)nc2c1C | 0.4 |  |  |  |  |  |  | 1.3 |  | 0.4 | 
COc1ccc2c(O[C@@H]3C[C@H]4C(=O)N[C@]5(C(=O)NS(=O)(=O)C6CC6)C[C@H]5/C=C\CCCCC[C@H](NC(=O)C(=O)N5CCCCC5)C(=O)N4C3)cc(-c3nc(C4CC4)cs3)nc2c1C | 0.4 | 14 | 0.02 | 49 | 151 | 5.5 | 6.2 | 1 | 0.1 | 0.5 | 
COc1ccc2c(O[C@@H]3C[C@H]4C(=O)N[C@]5(C(=O)NS(=O)(=O)C6CC6)C[C@H]5/C=C\CCCCC[C@H](NC(=O)OC(C)(C)C)C(=O)N4C3)cc(-c3nc(C4CC4)cs3)nc2c1C | 0.4 | 6 | 0.02 |  |  | 1.9 | 1.5 | 6.3 | 0.08 | 0.4 | clearance [11]: 45.6 mL/min/kg; Fa [12]: 14.5%; AUC [13]: 381 ng·h/mL; half-life [14]: 97.8 min; AUC(0-inf) [15]: 201 ng·h/mL; bioavailability [16]: 10%
COc1ccc2c(O[C@@H]3C[C@H]4C(=O)N[C@]5(C(=O)NS(=O)(=O)C6CC6)C[C@H]5/C=C\CCCCC[C@H](N)C(=O)N4C3)cc(-c3nc(C4CC4)cs3)nc2c1C | 1 | 155 | 1 | 229 | 1660 | 20 | 41 | 1.3 | 1.2 | 0.7 | 
COc1ccc2c(O[C@@H]3C[C@H]4C(=O)N[C@]5(C(=O)NS(=O)(=O)C6CC6)C[C@H]5/C=C\CCCCC[C@H](NC(=O)N(C)C)C(=O)N4C3)cc(-c3nc(C4CC4)cs3)nc2c1C | 0.2 | 0.5 | 0.03 | 14 | 27 | 0.5 | 2 | 0.5 | 0.05 | 0.3 | 
CCN(CC)C(=O)N[C@H]1CCCCC/C=C\[C@@H]2C[C@@]2(C(=O)NS(=O)(=O)C2CC2)NC(=O)[C@@H]2C[C@@H](Oc3cc(-c4nc(C5CC5)cs4)nc4c(C)c(OC)ccc34)CN2C1=O | 0.2 | 4 | 0.03 | 19 | 51 | 1 | 5.5 | 0.6 | 0.1 | 0.3 | Fa [17]: 19%; clearance [18]: 152 mL/min/kg; half-life [19]: 84 min; AUC(0-inf) [20]: 48.7 ng·h/mL; AUC [21]: 127 ng·h/mL; bioavailability [22]: 7.4%
COc1ccc2c(O[C@@H]3C[C@H]4C(=O)N[C@]5(C(=O)NS(=O)(=O)C6CC6)C[C@H]5/C=C\CCCCC[C@H](NC(=O)C5(OC)CC5)C(=O)N4C3)cc(-c3nc(C4CC4)cs3)nc2c1C | 0.2 |  |  |  |  |  |  | 1.6 |  | 0.2 | 
COc1ccc2c(O[C@@H]3C[C@H]4C(=O)N[C@]5(C(=O)NS(=O)(=O)C6CC6)C[C@H]5/C=C\CCCCC[C@H](NC(=O)C5(OC)CCC5)C(=O)N4C3)cc(-c3nc(C4CC4)cs3)nc2c1C | 0.1 | 44 | 0.04 | 91 | 263 | 20 | 85 | 2 | 0.3 | 0.2 | Fa [17]: 16.5%; clearance [18]: 144 mL/min/kg; half-life [19]: 59.4 min; AUC(0-inf) [20]: 49.1 ng·h/mL; AUC [21]: 117 ng·h/mL; bioavailability [22]: 8.2%
CC(C)(C)OC(=O)N[C@H]1CCCCC/C=C\[C@@H]2C[C@@]2(C(=O)NS(=O)(=O)C2CC2)NC(=O)[C@@H]2C[C@@H](OC(=O)N3Cc4cccc(F)c4C3)CN2C1=O [DANOPREVIR] |  | 82 | 0.2 | 39 | 26 | 10 | 8 | 0.7 | 2 |  | 
COc1ccc2c(O[C@@H]3C[C@H]4C(=O)N[C@]5(C(=O)NS(=O)(=O)C6CC6)C[C@H]5/C=C\CCCCN(C)C(=O)[C@@H]4C3)cc(-c3nc(C(C)C)cs3)nc2c1C [SIMEPREVIR] | 1 | 56 | 1 | 149 | 140 | 86 | 344 | 10 | 0.3 | 2 | 
CCC[C@H](NC(=O)[C@@H]1[C@H]2CCC[C@H]2CN1C(=O)[C@@H](NC(=O)[C@@H](NC(=O)c1cnccn1)C1CCCCC1)C(C)(C)C)C(=O)C(=O)NC1CC1 [TELAPREVIR] |  | 1780 | 34 | 638 | 207 | 1140 | 1960 | 500 | 883 |  | 
